Earlier results, collected in patent US20090093463A1, “NOVEL COMPOUNDS OF SUBSTITUTED AND UNSUBTITUTED ADAMANTYL AMIDES” (AGOURON PHARMACEUTICALS INC., priority 2004, published 2009).

Experiments:
[1] = molecular target: T1, 11-β-hsd-1 (Homo sapiens, UniProt P28845); details: ingestion, normal subjects
T1 construct: host or cells: normal subjects (in vivo)

[2] = molecular target: T1, 11-β-hsd-1; details: healthy human volunteers

T1 sequence (P28845 whole entry): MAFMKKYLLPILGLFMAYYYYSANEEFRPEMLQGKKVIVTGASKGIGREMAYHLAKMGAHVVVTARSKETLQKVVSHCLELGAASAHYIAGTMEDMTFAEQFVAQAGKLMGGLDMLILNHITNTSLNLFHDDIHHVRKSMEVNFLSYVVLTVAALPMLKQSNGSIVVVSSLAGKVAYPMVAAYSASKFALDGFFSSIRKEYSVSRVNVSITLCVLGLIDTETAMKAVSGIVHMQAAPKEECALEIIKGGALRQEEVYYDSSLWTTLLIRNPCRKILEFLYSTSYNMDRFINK

For CC1(C)[C@@H](OC(=O)CCC(=O)O)CC[C@]2(C)[C@H]3C(=O)C=C4[C@@H]5C[C@@](C)(C(=O)O)CC[C@]5(C)CC[C@@]4(C)[C@]3(C)CC[C@@H]12 [carbenoxolone], the “reduction of intraocular pressure” value [1] is listed as 20% and the hepatic insulin sensitivity [2] is listed as “improved”.
